According to US20220265691A1, “METHODS FOR USE OF GENE EXPRESSION AS AN INDICATOR OF E-SELECTIN INHIBITOR EFFICACY AND CLINICAL OUTCOME FOR MULTIPLE TUMOR TYPES” (GLYCOMIMETICS, INC., priority 2019, published 2022):
pIC50: −log10 of the molar value.

Experiments:
E-selectin = target: T1, E-selectin (Homo sapiens, UniProt P16581); assay: E-Selectin Activity - competitive binding assay (sLea polyacrylamide / immobilized E-selectin/Ig chimera); settings: inhibition of sLea conjugate binding to immobilized E-selectin/Ig chimera; read-out: IC50 (E-Selectin Antagonist Activity)
T1 construct: fused on or other part: Immunoglobulin (Ig) part fused to E-selectin as a handle for immobilisation
T1 sequence (P16581 22-175 limits assumed): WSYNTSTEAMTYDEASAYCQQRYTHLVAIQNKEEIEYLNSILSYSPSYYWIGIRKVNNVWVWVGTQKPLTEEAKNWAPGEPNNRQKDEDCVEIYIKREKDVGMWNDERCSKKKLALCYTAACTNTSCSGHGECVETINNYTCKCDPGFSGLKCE
Description: The inhibition assay to screen and characterize antagonists of E-selectin is a competitive binding assay, from which IC50 values may be determined. E-selectin/Ig chimera are immobilized in 96 well microtiter plates by incubation at 37° C. for 2 hours. To reduce nonspecific binding, bovine serum albumin is added to each well and incubated at room temperature for 2 hours. The plate is washed and serial dilutions of the test compounds are added to the wells in the presence of conjugates of biotinylated, sLea polyacrylamide with streptavidin/horseradish peroxidase and incubated for 2 hours at room temperature.
To determine the amount of sLe^a bound to immobilized E-selectin after washing, the peroxidase substrate, 3,3′,5,5′ tetramethylbenzidine (TMB) is added. After 3 minutes, the enzyme reaction is stopped by the addition of H3PO4, and the absorbance of light at a wavelength of 450 nm is determined. The concentration of test compound required to inhibit binding by 50% is determined.

[1] = system: relapsed or refractory AML; assay: Phase I/II trial of Formula I in combination with chemotherapy for AML; format: in vivo, human; settings: for overall survival (OS): Formula I plus chemotherapy
Description: Phase I/II trial of Formula I in combination with chemotherapy for AML: A specific glycomimetic antagonist of E-selectin (Formula I) was rationally designed based on the bioactive conformation of sialyl Le^a/x in the binding site of E-selectin. Treatment of AML relapsed/refractory patients with the compound of Formula I and chemotherapy were evaluated for response. In a Phase I trial, 19 patients were treated with the compound of Formula I twice a day at 5 mg/kg (n=6), 10 mg/kg (n=7), and 20 mg/kg doses (n=6), in combination with induction MEC (mitoxantrone, epotoside, and cytarabine) chemotherapy. In a Phase II trial, the treatment regimen comprised one 10 mg/kg dose of the compound of Formula I 24 hours prior to chemotherapy, then twice daily 10 mg/kg doses of the compound of Formula I throughout either MEC (mitoxantrone, etoposide, and cytarabine) or 7+3 (cytarabine for 7 days followed by 3 days of daunorubicin, idarubicin or mitoxantrone) chemotherapy up till 48 hours post-chemotherapy. AML blasts from the patients' bone marrow and peripheral blood were isolated, and the expression of E-selectin ligand on the blasts was measured using immunofluorescence. Patient response to treatment was also assessed.

Row | SMILES | pIC50 (E-selectin) | overall survival (OS) ([1]; patients with greater than 10% of blasts expressing E-selectin ligand (HECA-452; high expressers)) | overall survival (OS) ([1]; patients with less than 10% blasts expressing E-selectin ligand (HECA-452; low expressers)) | response rate (CR/CRi) ([1]; patients with relapsed or refractory AML, compound of Formula I plus chemotherapy) | CR/CRi rate after a single course of induction treatment ([1]; relapsed or refractory AML, single course of induction, higher than historical controls treated with MEC)
1 | CCC1CC(C(=O)NCCNC(=O)c2cn(CC(COS(=O)(=O)O)(COS(=O)(=O)O)COS(=O)(=O)O)nn2)C[C@@H](O[C@@H]2OC(CO)[C@H](O)C(O[C@@H](CC3CCCCC3)C(=O)O)C2NC(=O)Cn2cc(COCCOCCOCCOCCOCc3cn(CC(=O)NC4C(O[C@@H](CC5CCCCC5)C(=O)O)[C@@H](O)C(CO)O[C@H]4O[C@@H]4CC(C(=O)NCCNC(=O)c5cn(CC(COS(=O)(=O)O)(COS(=O)(=O)O)COS(=O)(=O)O)nn5)CC(CC)C4O[C@@H]4OC(C)[C@@H](O)C(O)C4O)nn3)nn2)C1O[C@@H]1OC(C)[C@@H](O)C(O)C1O (some centres unmarked) [Compound 206] | 8.80 | – | – | – | –
2 | CCC1CC(C(=O)NCCNC(=O)CCOCCOCCOCCOCCOCCOCCOCCOCCOCCOCCOCCOC)C[C@@H](O[C@@H]2O[C@@H](CO)[C@H](O)C(O[C@@H](CC3CCCCC3)C(=O)O)C2NC(C)=O)[C@@H]1OC1O[C@@H](C)[C@H](O)C(O)[C@@H]1O (some centres unmarked) [compound of Formula I] | – | 12.7 months | 5.2 months | 41% | 47%
